Entries after “also recorded” stand apart in the source; their conditions may differ. Marks after values point to notes of the source that are not given here.
Columns and labels:
[1] = test system: urinary sCD163; assay: Urine sCD163/creatinine ratio (ELISA) in clinical trial of AAV patients; format: in vivo, human; conditions: for Urine sCD163/creatinine, Geo mean: all on IV cyclophosphamide or rituximab; for Time course of decrease of urine sCD163 (sCD163/creatinine), in words: versus baseline
Method: The clinical trial results presented herein comprised 3 patient groups: (1) Full dose prednisone (60 mg), standard of care; (2) Avacopan 30 mg b.i.d. plus low dose prednisone (20 mg); (3) Avacopan 30 mg b.i.d. plus no prednisone. All patients received either IV cyclophosphamide or IV rituximab. sCD163 (ELISA) and creatinine were measured pre-dose, and at days 8, 15, 29, 57, and 85. The groupings are further described below in Table 1. [table] Mid-stream urine samples were collected with a clean catch method and were shipped to the central laboratory refrigerated the same day for analysis of creatinine, albumin and UACR. Another fraction of urine was centrifuged at 1200 g and 2-8° C. for 10 minutes. Supernatant was aliquoted into cryovials and stored at -70° C. until analysis. Urine sCD163 and MCP-1 were analyzed by ELISA in complete subject sets using ELISA kits from R&D systems. Urine sCD163/creatinine ratios, UACR, and urine MCP-1/creatinine ratios were log transformed for normal distribution. Change from baseline in urine sCD163/creatinine ratios for each time point within group was analyzed by the mixed effects model for repeated measures. P<0.05 was considered as statistically significant.

[2] = test system: ANCA-associated vasculitis (AAV); assay: Disease activity and health-related quality of life in clinical trial of AAV patients; format: in vivo, human
Method: The clinical trial results presented herein comprised 3 patient groups: (1) Full dose prednisone (60 mg), standard of care; (2) Avacopan 30 mg b.i.d. plus low dose prednisone (20 mg); (3) Avacopan 30 mg b.i.d. plus no prednisone. All patients received either IV cyclophosphamide or IV rituximab. sCD163 (ELISA) and creatinine were measured pre-dose, and at days 8, 15, 29, 57, and 85. The groupings are further described below in Table 1. [table] […] Panel A plots the Birmingham Vasculitis Activity Score; Panel B plots the Urinary Albumin: creatinine Ratio; Panel C plots the Health-related quality-of-life measurement EQ-5D-5L visual analog scale , expressed as mean +/- SEM over the treatment period; Panel D and Panel E plot the health-related quality-of-life measurement Medical Outcomes Study SF-36 version 2 Physical Functioning and Role Emotional components, expressed as mean +/- SEM over the treatment period.

[3] = D8, Avacopan 30 mg BID where given
[4] = D15, Avacopan 30 mg BID where given
[5] = D29, Avacopan 30 mg BID where given
[6] = D57, Avacopan 30 mg BID where given
[7] = D85, Avacopan 30 mg BID where given

| Compound | Urine sCD163/creatinine, Geo mean [1, 3] | Urine sCD163/creatinine, Geo mean [1, 4] | Urine sCD163/creatinine, Geo mean [1, 5] | Urine sCD163/creatinine, Geo mean [1, 6] | Urine sCD163/creatinine, Geo mean [1, 7] | Time course of decrease of urine sCD163 (sCD163/creatinine), in words [1] | Disease activity (Birmingham Vasculitis Activity Score), in words ([2]; FIG. 1A) | Health-related quality of life (EQ-5D-5L, SF-36 v2), in words ([2]; FIGS. 1C-1E) | Time course of decrease of urine sCD163 (sCD163/creatinine), in words ([1]; listed as full-dose prednisone) |
| --- | --- | --- | --- | --- | --- | --- | --- | --- | --- |
| Cc1ccc(NC(=O)[C@H]2CCCN(C(=O)c3c(C)cccc3F)[C@H]2c2ccc(NC3CCCC3)cc2)cc1C(F)(F)F [Avacopan] | 180* ng/mmole | 165* ng/mmole | 117** ng/mmole | 125* ng/mmole | 97* ng/mmole | reduced sCD163/creatinine markedly by day 8; also recorded: rapid reduction of sCD163; also recorded: decreased within one week | rapid decrease in diseases activity | significant improvement in health-related quality of life |  |
| C[C@]12C=CC(=O)C=C1CC[C@@H]1[C@@H]2C(=O)C[C@@]2(C)[C@H]1CC[C@]2(O)C(=O)CO [Placebo + FD Prednisone, Prednisone, reference compound] | 300 ng/mmol | 249 ng/mmol | 220 ng/mmol | 116*** ng/mmole | 120** ng/mmole | decreased much later (by week 8) |  |  | did not show improvement in urinary sCD163 until day 57 |
